Results from patent publication US6534283B1, “Method for treatment and prevention of physiological shock” (The Regents of the University of California, priority 1999, dated 2003).

Experiments:
[1] = system: Human neutrophils (PMNs); test: Neutrophil activation (pseudopod formation) by pancreatic homogenate prepared with protease inhibitors; assay type: cell-based; settings: for ability of the homogenate to stimulate neutrophil activation: pancreas homogenized in the presence of protease inhibitor
Protocol: The organs were immediately washed in cold 0.25 M sucrose solution, homogenized in Krebs-Henseleit solution (1:3 w/v), and the homogenate was diluted (1:2 v/v Krebs-Henseleit), following the protocol established by Glen and Lefer (Circ. Res., 1971). This homogenate served as the stock solution for all experiments. Aliquots were heated for 2.5 hours at 38° C. with mild stirring and the supernatant collected after centrifugation at 500 g for 10 min. Incubation of tissue homogenates at 38° C. promotes enzymatic activity and enhances production of the cellular activation factors.
Neutrophils were isolated from venous blood collected from healthy human volunteers in heparinized vacutainer tubes and stored at 4° C. Human neutrophils (PMNs) were used in these studies after it was shown in pilot studies that the rat organ extracts stimulated activation of both human and rat neutrophils to a similar degree.
Neutrophil isolation was carried out using gravity sedimentation to remove erythrocytes and centrifugation through a Percoll gradient. Isolated neutrophils were resuspended in PBS to achieve a count of 10^6 neutrophils/ml. 100 μl aliquots of suspended neutrophils were added to 100 μl of activating agent (e.g. tissue homogenate) or PBS as a control, and incubated for 10 minutes at 27° C. After incubation, 100 μl of 3% glutaraldehyde (Fisher Scientific, Fair Lawn, N.J.) was added to fix the cells. 100 μl of crystal violet in phosphate (pH: 7.4) buffer was added to label leukocyte nuclei for identification on wet mount preparations. Freely suspended neutrophils with pseudopodia were identified by their segmented nuclei and by the presence of cytoplasmic granules. One hundred neutrophils were counted per slide. Cells having pseudopod projections greater than about 1 μm were considered positive.
To determine if pancreatic homogenates could induce a “systemic response” in vitro, non-pancreatic tissues were incubated with substimulatory quantities of pancreatic homogenate (100 μl pancreatic homogenate/3 ml organ homogenate). […] As the pancreas produces a number of digestive enzymes, including proteases, a cocktail of trypsin and chymotrypsin was added to non-pancreatic tissue and the neutrophil activation assays were performed.

[2] = system: rats; test: Shock induced by bolus injection of pancreatic homogenate, with or without ANGD infusion; assay type: in vivo, rat; settings: one hour i.v. pretreatment 3.3 mg/kg body wt per hour, then pancreatic homogenate bolus
Protocol: Rats were cannulated via the femoral arteries and veins under general anesthesia (pentobarbital, 50 mg/kg i.m.) and saline, without or with ANGD, was infused to examine the response of the circulation after administration of pancreatic homogenate. The arterial catheter served to record mean arterial pressure (MAP) and heart rate. […] No heparin was injected other than that needed to maintain open catheters (10 U/ml Plasma-Lyte, Travenol Laboratory Inc., Deerfield, Ill.). After a one hour pretreatment, a bolus injection of filtered (0.78 μm vacuum filter, Millipore) stock pancreatic homogenate was administered (2 ml). The extent to which pancreatic homogenate induced hypotension and circulatory shock, both in the presence and absence of ANGD, was examined.

[3] = system: rats; test: Splanchnic ischemia/reperfusion shock with perfusion of the lumen of the small intestine; assay type: in vivo, rat
Protocol: (§1) The small intestine of rats was perfused at a constant flow rate (4.0 ml/min) with 45 ml of rat intestinal fluid supplemented with 5 ml of 5% glucose (IF) or 50 ml of saline with 0.1% glucose (SAL) or with ANDG at a final concentration of 0.2 mg/ml. The perfusate was recirculated continuously throughout the entire procedure. After 15 min of intestinal perfusion, the animals were subjected to […]. of splanchnic ischemia, which was confirmed by cyanotic organ discoloration and loss of the pressure pulsation in the mesentery.
Arterial and portal venous blood (0.3 ml each) were sampled before ischemia, after 90 min of ischemia, and 30, 60, and 120 min postreperfusion. The samples were analyzed for leukocyte count and activation based on crystal violet staining. In the preischemic period, the leukocyte counts were the same in all three groups. In the IF And SAL groups, the leukocyte count in arterial blood started to decrease after ischemia and reached its lowest value 120 min after reperfusion. […] Similarly, ANGD was able to inhibit the activation of circulating neutrophils (15.0±1.6%) as compared to both IF (23.3±1.0%, p<0.05) and SAL (25.0±1.6%, p<0.05) at 120 minutes post-perfusion.
Myeloperoxidase activity was used as a marker for assessment of leukocyte infiltration into the small intestine, liver, and lung. Tissue myeloperoxidase levels were determined by a spectrophotometric method. At 120 minutes of reperfusion, myeloperoxidase levels were increased in intestine (36.1±3.9 U/g to 309.3±51.0 U/g), liver (0.4±0.1 U/g to 2.6±0.3 U/g), and lung (29.0±4.4 U/g to 199.2±33.9 U/g). This is an early indicator of leukocyte infiltration and organ failure in shock.
Thickness of the intestinal mucosa was used as an indicator of damage to the intestine. A sample of small intestine was longitudinally dissected, fixed in 10% buffered formalin, and embedded in paraffin. Five-micrometer sections were made and stained with hematoxylin and eosin and examined at 200× magnification. Severity of intestinal injury was estimated by the length between the tip of the villi and the musculus mucosae, a measure of mucosal layer thickness. In each specimen, the measurement was made at 10 randomly selected locations and averaged. Intestinal perfusion of protease inhibitor served to maintain mucosal thickness and to reduce intestinal injury (IF 252.0±34.0 […]).
The level of edematous lung injury was assayed by a pulmonary wet/dry ratio. Lung lobes were harvested, wet weight was determined and samples were dried at 70° C. for 72 hours. The dried tissue was weighed, and the ratio of wet to dried weight was calculated. Edema was much greater in the IF (5.65±0.33) and SAL (4.88±0.39) groups as compared to the ANGD (3.66±0.27) group which was similar to non-shock controls.

[4] = system: serine protease; test: Serine protease activity of intestinal fluid during intestinal perfusion and splanchnic ischemia; assay type: in vivo, rat; settings: intestinal perfusion 0.2 mg/ml
Protocol: as §1
The process of shock was monitored by a number of methods in various tissues throughout the body. Intestinal fluid was analyzed for serine protease activity. One milliliter of circulating fluid in the intestine was collected from the reservoir before ischemia and 90 min after ischemia. […] After 90 min of ischemia, the serine protease activity levels in the IF, SAL, and ANGD groups were 5.6±2.3×10^3 units/ml, 3.3±2.3×10^3 units/ml, and 1.2±0.2×10^3 units/ml, respectively. Intestinal perfusion with ANGD kept the serine protease activity lower than in the other two groups (p<0.05, SAL vs. ANGD; p<0.01 ANGD vs. IF and SAL groups).

N=C(N)c1ccc2cc(OC(=O)c3ccc(N=C(N)N)cc3)ccc2c1 [ANGD, 6-amidino-2napthyl p-guanidobenzoate dimethane-sulfate]
neutrophil activation ([1]; pancreas homogenized in presence of inhibitor, untreated extract 59±10%): 9±12%
ability of the homogenate to stimulate neutrophil activation [1]: significantly decreased
death within the 60 minute post-injection observation period [2]: none of these animals died
time for MAP and heart rate to return to normal levels [2]: ≤ 20 min
myeloperoxidase activity in liver ([3]; 120 minutes of reperfusion, without inhibitor 2.6±0.3 U/g): 1.0±0.1 U/g
myeloperoxidase activity in lung ([3]; 120 minutes of reperfusion, without inhibitor 199.2±33.9 U/g): 87.0±13.4 U/g
myeloperoxidase activity in intestine ([3]; 120 minutes of reperfusion, without inhibitor 309.3±51.0 U/g): 62.5±19.8 U/g
activation of circulating neutrophils ([3]; 120 minutes post-perfusion, IF 23.3±1.0%, SAL 25.0±1.6%): 15.0±1.6%
pulmonary wet/dry ratio (edematous lung injury) ([3]; IF 5.65±0.33, SAL 4.88±0.39): 3.66±0.27
leukopenia (leukocyte count in arterial blood) ([3]; intestinal perfusion 0.2 mg/ml, after ischemia up to 120 min after reperfusion): completely ameliorated leukopenia
mucosal thickness (tip of the villi to musculus mucosae) ([3]; small intestine, IF 252.0±34.0): 378 ± 38 µm
serine protease activity level in the intestine ([4]; after 90 min of ischemia, IF 5.6±2.3×10^3, SAL 3.3±2.3×10^3): 1.2±0.2×10^3 units/ml
serine protease activity level in the intestine ([4]; before ischemia, IF=5.8±1.8×10^3, SAL=2.0±0.9×10^3): 1.2±0.1×10^3 units/ml

CCOC(=O)c1ccc(OC(=O)CCCCCN=C(N)N)cc1.CS(=O)(=O)O [FOY, gabaxalate mesilate]
ability of the homogenate to stimulate neutrophil activation [1]: significantly decreased

O=S(=O)(F)Cc1ccccc1 [PMSF, phenylmethylsulfonylfluoride]
ability of the homogenate to stimulate neutrophil activation [1]: significantly decreased
